Values joined by “and” are separate entries in the source; they are usually repeats but may differ in a detail not shown here. Identical values can stand only once. Counter-ions that a name gives are not always drawn.
Key:
activated human C1 = activated human C1 (Homo sapiens, UniProt P09871); assay: Test, Code 026 (C1 inhibitor); type: biochemical; settings: for LOGARITHMIC DIFFERENCE EXPRESSED AS WELLS / INTRINSIC THERAPEUTICAL INDEX / COMPLEMENT INHIBITING ACTIVITY (WELLS) CODE 026: Table II; for LOGARITHMIC DIFFERENCE EXPRESSED AS WELLS: Code 026 wells minus AC wells (base 2); for INTRINSIC THERAPEUTICAL INDEX: antilogarithm (base 2) of difference between Code 026 wells and AC wells; for COMPLEMENT INHIBITING ACTIVITY (WELLS) CODE 026: highest active serial dilution; for 026 Wells: Table I, serial two-fold dilution assay, higher well number indicates higher activity
From the text: (§1) An active inhibitor protects C2 from C1 and C4; (ii) Test, Code 035 (C3- C9 inhibitor) - This test determines the ability of the late components of human complement (C3-C9) to lyse EAC 142 in the presence of appropriate dilutions of the test compound. An active inhibitor protects EAC 142 from lysis by human C3-C9; (iii) Test, Code 036 (C-Shunt inhibitor) - In this test human erythrocytes rendered fragile are lysed in autologous serum via the shunt pathway activated by cobra venom factor in the presence of appropriate dilutions of the test compound. Inhibition of the shunt pathway results in failure of lysis; (iv) Forssman Vasculitis Test - Here, the well known complement dependent lesion, Forssman vasculitis, is produced in guinea pigs by intradermal injection of rabbit anti-forssman antiserum. The lesion is measured in terms of diameter, edema and hemorrhage and the extent to which a combined index of these is inhibited by prior intraperitoneal injection of the test compound at 200 mg/kg in then reported, unless otherwise stated; (v) Forssman Shock Test -- Lethal shock is produced in guinea pigs by an i.v. injection of anti-Forssman antiserum and the harmonic mean death time of treated guinea pigs is compared with that of simultaneous controls; (vi) Complement Level Reduction Test -- In this test, the above dosed guinea pigs, or others, are bled for serum and the complement level is determined in undiluted serum by the capillary tube method of U.S. Pat. No. 3,876,376 and compared to undosed control guinea pigs; and (vii) Cap 50 Test -- Here, appropriate amounts of the test compound are added to a pool of guinea pig serum in vitro, after which the undiluted serum capillary tube assay referred to above is run. The concentration of compound inhibiting 50% is reported.

[1] = tested on: late components of human complement (C3-C9); assay: Test, Code 035 (C3-C9 inhibitor); type: biochemical; settings: Table I; lysis of EAC 142; serial two-fold dilution assay, higher well number indicates higher activity
From the text: as §1

Citrated sheep plasma = assay: In vitro anti-coagulant activity (AC) test; settings: for A.C. Wells: Table I, clot inhibition, recalcified citrated sheep plasma, serial two-fold dilutions; for ANTI-COAGULANT ACTIVITY (WELLS) AC: Table II, highest active serial dilution
Description: The sheep RBC'S, kept in suspension throughout the clotting incubation time, become enmeshed in the fibrin matrix if a clot forms. Upon centrifugation of the plate untrapped RBC's form buttons, the sizes of which correspond to the degree of clot inhibition; this providing a measure of anti-coagulant activity (AC).

[2] = tested on: shunt pathway activated by cobra venom factor; assay: Test, Code 036 (C-Shunt inhibitor); type: cell-based; settings: Table I, lysis of fragile human erythrocytes in autologous serum, serial two-fold dilution assay, higher well number indicates higher activity
From the text: as §1

## O=S(=O)(O)OC[C@H]1O[C@H](O[C@H]2[C@H](OS(=O)(=O)O)[C@@H](OS(=O)(=O)O)C(OS(=O)(=O)O)O[C@@H]2COS(=O)(=O)O)[C@H](OS(=O)(=O)O)[C@@H](OS(=O)(=O)O)[C@@H]1OS(=O)(=O)O (stereo partly drawn) [Maltose Poly(H-)Sulfate Trimethylamine Salt]
Activated human C1
  LOGARITHMIC DIFFERENCE EXPRESSED AS WELLS: +10 WELLS
  INTRINSIC THERAPEUTICAL INDEX: 1024
  COMPLEMENT INHIBITING ACTIVITY (WELLS) CODE 026: +8 WELLS
[1]
  035 Wells: Neg.
Citrated sheep plasma
  A.C. Wells: -2 Wells
  ANTI-COAGULANT ACTIVITY (WELLS) AC: -2 WELLS
[2]
  036 Wells: Neg.

## O=S(=O)(O)OC[C@H]1O[C@H](O[C@H]2[C@H](OS(=O)(=O)O)[C@@H](OS(=O)(=O)O)[C@@H](O[C@H]3[C@H](OS(=O)(=O)O)[C@@H](OS(=O)(=O)O)[C@@H](O[C@H]4[C@H](OS(=O)(=O)O)[C@@H](OS(=O)(=O)O)C(OS(=O)(=O)O)O[C@@H]4COS(=O)(=O)O)O[C@@H]3COS(=O)(=O)O)O[C@@H]2COS(=O)(=O)O)[C@H](OS(=O)(=O)O)[C@@H](OS(=O)(=O)O)[C@@H]1O[C@H]1O[C@H](COS(=O)(=O)O)[C@@H](O[C@H]2O[C@H](COS(=O)(=O)O)[C@@H](O[C@H]3O[C@H](COS(=O)(=O)O)[C@@H](OS(=O)(=O)O)[C@H](OS(=O)(=O)O)[C@H]3OS(=O)(=O)O)[C@H](OS(=O)(=O)O)[C@H]2OS(=O)(=O)O)[C@H](OS(=O)(=O)O)[C@H]1OS(=O)(=O)O (stereo partly drawn) [Maltoheptaose Poly(H-)sulfate Trimethylamine Salt]
Activated human C1
  026 Wells: +9 Wells
  LOGARITHMIC DIFFERENCE EXPRESSED AS WELLS: +5 WELLS
  COMPLEMENT INHIBITING ACTIVITY (WELLS) CODE 026: +9 WELLS
Citrated sheep plasma
  A.C. Wells: +4 Wells
  ANTI-COAGULANT ACTIVITY (WELLS) AC: +4 WELLS
[2]
  036 Wells: 5 Wells

## Maltotriose Poly(H-)sulfate Trimethylamine Salt
Activated human C1
  026 Wells: +7 Wells
  LOGARITHMIC DIFFERENCE EXPRESSED AS WELLS: +8 WELLS
  INTRINSIC THERAPEUTICAL INDEX: 256
  COMPLEMENT INHIBITING ACTIVITY (WELLS) CODE 026: +7 WELLS
[1]
  035 Wells: Neg.
Citrated sheep plasma
  A.C. Wells: -1 Wells
  ANTI-COAGULANT ACTIVITY (WELLS) AC: -1 WELLS
[2]
  036 Wells: Neg.

## Maltotriose Poly(H-)sulfate Sodium Salt
Activated human C1
  026 Wells: +9 Wells
  LOGARITHMIC DIFFERENCE EXPRESSED AS WELLS: +10 WELLS
  INTRINSIC THERAPEUTICAL INDEX: 1024
  COMPLEMENT INHIBITING ACTIVITY (WELLS) CODE 026: +9 WELLS
[1]
  035 Wells: Neg.
Citrated sheep plasma
  A.C. Wells: -1 Wells
  ANTI-COAGULANT ACTIVITY (WELLS) AC: -1 WELLS
[2]
  036 Wells: Neg.

## O=S(=O)(O)OC[C@H]1O[C@H](O[C@H]2[C@H](OS(=O)(=O)O)[C@@H](OS(=O)(=O)O)C(OS(=O)(=O)O)O[C@@H]2COS(=O)(=O)O)[C@H](OS(=O)(=O)O)[C@@H](OS(=O)(=O)O)[C@@H]1OS(=O)(=O)O (stereo partly drawn) [Maltose Poly(H--) sulfate sodium salt, Maltose Poly (H-)Sulfate Sodium Salt]
Activated human C1; Sodium Salt
  COMPLEMENT INHIBITING ACTIVITY (WELLS) CODE 026: +12 WELLS
Citrated sheep plasma; Sodium Salt
  A.C. Wells: +2 Wells
  ANTI-COAGULANT ACTIVITY (WELLS) AC: +2 WELLS

## O=S(=O)(O)OC[C@H]1O[C@H](O[C@H]2[C@H](OS(=O)(=O)O)[C@@H](OS(=O)(=O)O)[C@@H](O[C@H]3[C@H](OS(=O)(=O)O)[C@@H](OS(=O)(=O)O)[C@@H](O[C@H]4[C@H](OS(=O)(=O)O)[C@@H](OS(=O)(=O)O)C(OS(=O)(=O)O)O[C@@H]4COS(=O)(=O)O)O[C@@H]3COS(=O)(=O)O)O[C@@H]2COS(=O)(=O)O)[C@H](OS(=O)(=O)O)[C@@H](OS(=O)(=O)O)[C@@H]1O[C@H]1O[C@H](COS(=O)(=O)O)[C@@H](O[C@H]2O[C@H](COS(=O)(=O)O)[C@@H](O[C@H]3O[C@H](COS(=O)(=O)O)[C@@H](OS(=O)(=O)O)[C@H](OS(=O)(=O)O)[C@H]3OS(=O)(=O)O)[C@H](OS(=O)(=O)O)[C@H]2OS(=O)(=O)O)[C@H](OS(=O)(=O)O)[C@H]1OS(=O)(=O)O (stereo partly drawn) [Maltoheptaose Poly(H-)sulfate Sodium Salt]
[2]; Sodium Salt
  036 Wells: 6 Wells and 5 Wells

— patent US4021544A, “Complement inhibitors” (American Cyanamid Company, priority 1976, dated 1977)
